Activity calls are given as the source filed them. The rule behind the calls is not given here.
System: CCRIS mutagenicity, Ames/micronucleus/aberration tests
Assay: CCRIS mutagenicity studies
[1] = Test System: AMES SALMONELLA TYPHIMURIUM, Strain/Indicator: TA98, Metabolic Activation: NONE, Method: PREINCUBATION
[2] = Test System: AMES SALMONELLA TYPHIMURIUM, Strain/Indicator: TA100, Metabolic Activation: NONE, Method: PREINCUBATION
[3] = Test System: AMES SALMONELLA TYPHIMURIUM, Strain/Indicator: TA102, Metabolic Activation: NONE, Method: STANDARD PLATE
[4] = Test System: AMES SALMONELLA TYPHIMURIUM, Strain/Indicator: TA98, Metabolic Activation: RAT, LIVER, S-9, AROCLOR 1254, Method: STANDARD PLATE
[5] = Test System: AMES SALMONELLA TYPHIMURIUM, Strain/Indicator: TA100, Metabolic Activation: RAT, LIVER, S-9, AROCLOR 1254, Method: STANDARD PLATE
[6] = Test System: AMES SALMONELLA TYPHIMURIUM, Strain/Indicator: TA98, Metabolic Activation: RAT, LIVER, S-9, AROCLOR 1254, Method: PREINCUBATION
[7] = Test System: AMES SALMONELLA TYPHIMURIUM, Strain/Indicator: TA100, Metabolic Activation: RAT, LIVER, S-9, AROCLOR 1254, Method: PREINCUBATION
[8] = Test System: AMES SALMONELLA TYPHIMURIUM, Strain/Indicator: TA98, Metabolic Activation: NONE, Method: STANDARD PLATE
[9] = Test System: AMES SALMONELLA TYPHIMURIUM, Strain/Indicator: TA100, Metabolic Activation: NONE, Method: STANDARD PLATE

**Q.** What does the source list for `COP(=O)(OC)OC`?
**A.** mutagenic call (Test System: AMES SALMONELLA TYPHIMURIUM, Strain/Indicator: TA98, Metabolic Activation: HAMSTER, LIVER, S-9, AROCLOR 1254 (30%), Method: PREINCUBATION): inactive; negative; mutagenic call [1]: inactive; negative; mutagenic call (Test System: AMES SALMONELLA TYPHIMURIUM, Strain/Indicator: TA98, Metabolic Activation: RAT, LIVER, S-9, AROCLOR 1254 (30%), Method: PREINCUBATION): inactive; negative; mutagenic call (Test System: AMES SALMONELLA TYPHIMURIUM, Strain/Indicator: TA100, Metabolic Activation: HAMSTER, LIVER, S-9, AROCLOR 1254 (30%), Method: PREINCUBATION): active; positive; mutagenic call [2]: inactive; negative; mutagenic call (Test System: AMES SALMONELLA TYPHIMURIUM, Strain/Indicator: TA100, Metabolic Activation: RAT, LIVER, S-9, AROCLOR 1254 (30%), Method: PREINCUBATION): active; positive; mutagenic call [3]: inactive; negative; mutagenic call (Test System: AMES SALMONELLA TYPHIMURIUM, Strain/Indicator: TA2638, Metabolic Activation: NONE, Method: STANDARD PLATE): active; positive; mutagenic call (Test System: E. COLI, Strain/Indicator: WP2 (PKM101), Metabolic Activation: NONE, Method: STANDARD PLATE): active; positive; mutagenic call (Test System: E. COLI, Strain/Indicator: WP2 UVRA (PKM101), Metabolic Activation: NONE, Method: STANDARD PLATE): active; positive

**Q.** How did the mutagenic call [4] turn out when `Clc1c2ccccc2cc2ccccc12` was run?
**A.** active; positive

**Q.** What about the mutagenic call [5] of the same molecule?
**A.** active; positive

**Q.** How did the mutagenic call [1] turn out when `Cc1cnc(C)cn1` was run?
**A.** inactive; negative

**Q.** And the mutagenic call [6]?
**A.** inactive; negative

**Q.** What about the mutagenic call [2] of the same molecule?
**A.** inactive; negative

**Q.** And the mutagenic call [7]?
**A.** inactive; negative

**Q.** And the mutagenic call (Test System: AMES SALMONELLA TYPHIMURIUM, Strain/Indicator: TA102, Metabolic Activation: NONE, Method: PREINCUBATION)?
**A.** inactive; negative

**Q.** And the mutagenic call (Test System: AMES SALMONELLA TYPHIMURIUM, Strain/Indicator: TA102, Metabolic Activation: RAT, LIVER, S-9, AROCLOR 1254, Method: PREINCUBATION)?
**A.** inactive; negative

**Q.** For `O=NN1CCSC1`, which mutagenic call [1] is on record?
**A.** inactive; negative

**Q.** And the mutagenic call [8]?
**A.** inactive; negative

**Q.** And the mutagenic call [6]?
**A.** inactive; negative

**Q.** What about the mutagenic call [4] of the same molecule?
**A.** active; positive

**Q.** What about the mutagenic call [9] of the same molecule?
**A.** active; positive

**Q.** What about the mutagenic call [7] of the same molecule?
**A.** active; positive

**Q.** What about the mutagenic call [5] of the same molecule?
**A.** active; positive

**Q.** What about the mutagenic call (Test System: UDS RAT PRIMARY HEPATOCYTES, Strain/Indicator: THY INCORP, Metabolic Activation: NONE) of the same molecule?
**A.** active; positive

**Q.** What does the source list for `C=C(Br)CBr`?
**A.** mutagenic call (Test System: AMES SALMONELLA TYPHIMURIUM, Strain/Indicator: TA100, Metabolic Activation: RAT, LIVER, MICROSOMES, PHENOBARBITAL, NADPH COFACTORS, Method: STANDARD PLATE): active; positive; mutagenic call (Test System: AMES SALMONELLA TYPHIMURIUM, Strain/Indicator: TA100, Metabolic Activation: RAT, LIVER, MICROSOMES, PHENOBARBITAL, Method: STANDARD PLATE): active; positive

**Q.** How did the mutagenic call (Test System: AMES SALMONELLA TYPHIMURIUM, Strain/Indicator: TA98, Metabolic Activation: HAMSTER, LIVER, S-9, AROCLOR 1254 (10%), Method: PREINCUBATION) turn out when `Nc1ccccn1` was run?
**A.** inactive; negative

**Q.** And the mutagenic call [1]?
**A.** inactive; negative

**Q.** What about the mutagenic call (Test System: AMES SALMONELLA TYPHIMURIUM, Strain/Indicator: TA98, Metabolic Activation: RAT, LIVER, S-9, AROCLOR 1254 (10%), Method: PREINCUBATION) of the same molecule?
**A.** inactive; negative

**Q.** And the mutagenic call (Test System: AMES SALMONELLA TYPHIMURIUM, Strain/Indicator: TA100, Metabolic Activation: HAMSTER, LIVER, S-9, AROCLOR 1254 (10%), Method: PREINCUBATION)?
**A.** inactive; negative

**Q.** What about the mutagenic call [2] of the same molecule?
**A.** inactive; negative

**Q.** And the mutagenic call (Test System: AMES SALMONELLA TYPHIMURIUM, Strain/Indicator: TA100, Metabolic Activation: RAT, LIVER, S-9, AROCLOR 1254 (10%), Method: PREINCUBATION)?
**A.** inactive; negative

**Q.** And the mutagenic call (Test System: AMES SALMONELLA TYPHIMURIUM, Strain/Indicator: TA1535, Metabolic Activation: HAMSTER, LIVER, S-9, AROCLOR 1254 (10%), Method: PREINCUBATION)?
**A.** inactive; negative

**Q.** And the mutagenic call (Test System: AMES SALMONELLA TYPHIMURIUM, Strain/Indicator: TA1535, Metabolic Activation: NONE, Method: PREINCUBATION)?
**A.** inactive; negative

**Q.** And the mutagenic call (Test System: AMES SALMONELLA TYPHIMURIUM, Strain/Indicator: TA1535, Metabolic Activation: RAT, LIVER, S-9, AROCLOR 1254 (10%), Method: PREINCUBATION)?
**A.** inactive; negative

**Q.** What about the mutagenic call (Test System: AMES SALMONELLA TYPHIMURIUM, Strain/Indicator: TA1537, Metabolic Activation: HAMSTER, LIVER, S-9, AROCLOR 1254 (10%), Method: PREINCUBATION) of the same molecule?
**A.** inactive; negative

**Q.** What about the mutagenic call (Test System: AMES SALMONELLA TYPHIMURIUM, Strain/Indicator: TA1537, Metabolic Activation: NONE, Method: PREINCUBATION) of the same molecule?
**A.** inactive; negative

**Q.** And the mutagenic call (Test System: AMES SALMONELLA TYPHIMURIUM, Strain/Indicator: TA1537, Metabolic Activation: RAT, LIVER, S-9, AROCLOR 1254 (10%), Method: PREINCUBATION)?
**A.** inactive; negative

**Q.** With `OCc1ccc2c(CO)c3ccc4ccccc4c3nc2c1` as the molecule, how does the mutagenic call [5] read?
**A.** inactive; negative

**Q.** What does the source list for `C1OC1C1CO1` (stereo not drawn)?
**A.** mutagenic call (End Point: IN VITRO CHROMOSOMAL ABERRATIONS, Test System: HUMAN PERIPHERAL LYMPHOCYTES, Metabolic Activation: NONE, Method: FISH (DUAL COLOR FOR CHROMOSOMES 7, 8, 12 AND X)): active; positive (hyperdiploidy of chromosomes 12 and x); mutagenic call (End Point: IN VITRO MICRONUCLEUS, Test System: HUMAN PERIPHERAL LYMPHOCYTES, Metabolic Activation: NONE): active; positive; mutagenic call [8]: active; positive; mutagenic call [9]: active; positive; mutagenic call [5]: active; positive; mutagenic call [3]: active; positive; mutagenic call (Test System: AMES SALMONELLA TYPHIMURIUM, Strain/Indicator: TA1535, Metabolic Activation: NONE, Method: STANDARD PLATE): active; positive; mutagenic call (Test System: AMES SALMONELLA TYPHIMURIUM, Strain/Indicator: TA7004, Metabolic Activation: NONE, Method: STANDARD PLATE): inactive; negative; mutagenic call (Test System: AMES SALMONELLA TYPHIMURIUM, Strain/Indicator: TA7005, Metabolic Activation: NONE, Method: STANDARD PLATE): inactive; negative; mutagenic call (Test System: CHINESE HAMSTER V-79, Strain/Indicator: V-79/6-THIOGUANINE, Metabolic Activation: NONE, Method: FLASK ASSAY): active; positive; mutagenic call (Test System: UDS MOUSE EPIDERMIS IN VIVO/IN VITRO, Strain/Indicator: HOS:HR-1/THYMIDINE INCORPORATION, Metabolic Activation: NONE, Method: LIQUID SCINTILLATION): active; positive

**Q.** With `O=NN1CCCCCC1` as the molecule, how does the mutagenic call (Test System: AMES SALMONELLA TYPHIMURIUM, Strain/Indicator: TA100, Metabolic Activation: RABBIT, LIVER, S-9, Method: PREINCUBATION) read?
**A.** active; positive

**Q.** And the mutagenic call (Test System: AMES SALMONELLA TYPHIMURIUM, Strain/Indicator: TA100, Metabolic Activation: RABBIT, LUNG MACROPHAGES, Method: PREINCUBATION)?
**A.** inactive; negative

**Q.** And the mutagenic call (Test System: AMES SALMONELLA TYPHIMURIUM, Strain/Indicator: TA100, Metabolic Activation: RABBIT, LUNG, CLARA CELLS, Method: PREINCUBATION)?
**A.** inactive; negative

**Q.** What about the mutagenic call (Test System: AMES SALMONELLA TYPHIMURIUM, Strain/Indicator: TA100, Metabolic Activation: RABBIT, LUNG, TYPE II CELLS, Method: PREINCUBATION) of the same molecule?
**A.** inactive; negative

**Q.** And the mutagenic call (Test System: AMES SALMONELLA TYPHIMURIUM, Strain/Indicator: TA1530, Metabolic Activation: RABBIT, LIVER, S-9, Method: PREINCUBATION)?
**A.** active; positive

**Q.** What about the mutagenic call (Test System: AMES SALMONELLA TYPHIMURIUM, Strain/Indicator: TA1530, Metabolic Activation: RABBIT, LUNG MACROPHAGES, Method: PREINCUBATION) of the same molecule?
**A.** inactive; negative

**Q.** And the mutagenic call (Test System: AMES SALMONELLA TYPHIMURIUM, Strain/Indicator: TA1530, Metabolic Activation: RABBIT, LUNG, CLARA CELLS, Method: PREINCUBATION)?
**A.** inactive; negative

**Q.** What about the mutagenic call (Test System: AMES SALMONELLA TYPHIMURIUM, Strain/Indicator: TA1530, Metabolic Activation: RABBIT, LUNG, TYPE II CELLS, Method: PREINCUBATION) of the same molecule?
**A.** inactive; negative

**Q.** What about the mutagenic call (Test System: UDS RABBIT LUNG CLARA CELLS, Strain/Indicator: THY INCORP, Metabolic Activation: NONE, Method: LIQUID SCINTILLATION COUNTING) of the same molecule?
**A.** active; positive

**Q.** What about the mutagenic call (Test System: UDS RABBIT LUNG MACROPHAGES, Strain/Indicator: THY INCORP, Metabolic Activation: NONE, Method: LIQUID SCINTILLATION COUNTING) of the same molecule?
**A.** inactive; negative

**Q.** And the mutagenic call (Test System: UDS RABBIT LUNG TYPE II CELLS, Strain/Indicator: THY INCORP, Metabolic Activation: NONE, Method: LIQUID SCINTILLATION COUNTING)?
**A.** inactive; negative
